According to ChEMBL document CHEMBL1124198, “Potential inhibitors of S-adenosylmethionine-dependent methyltransferases. 11. Molecular dissections of neplanocin A as potential inhibitors of S-adenosylhomocysteine hydrolase” (J Med Chem, 1988):

What was measured:
Vaccinia virus = settings: l929
Adenosylhomocysteinase [1] = target: Adenosylhomocysteinase (Mus musculus, UniProt P50247); assay: biochemical
Adenosylhomocysteinase [2] = target: T1, Adenosylhomocysteinase (Homo sapiens, UniProt P23526)
T1 sequence (P23526 whole entry): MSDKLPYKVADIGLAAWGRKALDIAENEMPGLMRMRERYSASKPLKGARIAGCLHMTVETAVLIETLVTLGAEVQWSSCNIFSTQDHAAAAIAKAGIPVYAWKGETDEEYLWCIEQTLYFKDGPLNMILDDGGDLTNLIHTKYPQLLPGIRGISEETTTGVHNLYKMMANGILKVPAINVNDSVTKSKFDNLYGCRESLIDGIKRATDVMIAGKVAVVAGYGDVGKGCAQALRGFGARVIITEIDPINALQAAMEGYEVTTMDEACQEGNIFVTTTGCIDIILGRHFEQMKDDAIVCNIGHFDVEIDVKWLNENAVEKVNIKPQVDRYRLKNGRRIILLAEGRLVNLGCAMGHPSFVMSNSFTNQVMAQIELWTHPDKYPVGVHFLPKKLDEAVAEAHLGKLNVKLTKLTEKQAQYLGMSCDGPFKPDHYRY

Adenosylhomocysteinase [3] = target: T1, Adenosylhomocysteinase; remark: listed apart in the source

Chain of Adenosylhomocysteinase (Mus musculus, UniProt P50247) (P50247 whole entry): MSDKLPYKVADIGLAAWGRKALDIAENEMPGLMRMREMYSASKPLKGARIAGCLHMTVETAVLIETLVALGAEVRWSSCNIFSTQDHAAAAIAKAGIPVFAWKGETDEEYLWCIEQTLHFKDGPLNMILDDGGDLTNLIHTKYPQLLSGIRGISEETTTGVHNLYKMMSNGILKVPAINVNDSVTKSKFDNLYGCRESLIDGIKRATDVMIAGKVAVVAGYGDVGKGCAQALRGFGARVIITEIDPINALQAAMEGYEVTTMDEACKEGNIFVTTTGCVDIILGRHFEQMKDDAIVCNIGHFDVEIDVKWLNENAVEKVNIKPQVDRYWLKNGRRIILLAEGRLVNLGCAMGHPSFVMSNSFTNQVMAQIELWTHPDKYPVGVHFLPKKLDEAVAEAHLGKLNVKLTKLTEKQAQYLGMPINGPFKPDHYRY

| SMILES | IC50 (Vaccinia virus) [µM] | IC50 (Adenosylhomocysteinase [1]) [µM] | IC50 (Adenosylhomocysteinase [2]) | Ki (Adenosylhomocysteinase [3]) |
| --- | --- | --- | --- | --- |
| Nc1ncnc2c1ncn2CC=C(CO)CO | 700 | 65 | Not Active | – |
| Nc1nccc2c1ncn2C/C=C\[C@@H](O)CO | 70 | 61 | Not Active | – |
| Nc1ncnc2c1ncn2C/C=C(/CO)[C@@H](O)CO.Nc1ncnc2c1ncn2C/C=C(\CO)[C@@H](O)CO | 170 | – | Not Active | – |
| Nc1ncnc2c1ncn2C/C=C\[C@@H](O)CO | 100 | 100 | Not Active | – |
| C/C(=C\Cn1cnc2c(N)ncnc21)CO | 300 | – | Not Active | – |
| Nc1nccc2c1ncn2C/C=C\CO | 300 | 200 | Not Active | – |
| Nc1ncnc2c1ncn2C/C=C/CO | 109 | 230 | Not Active | – |
| Nc1nccc2c1ncn2CC=C(CO)CO | 500 | 110 | Not Active | – |
| Nc1ncnc2c1ncn2C/C=C/C(O)CO (configuration not stated) | 250 | – | – | Not Active |
| Nc1ncnc2c1ncn2C/C=C\CO | 108 | 145 | Not Active | – |
| Nc1nccc2c1ncn2CC#CCO | 300 | 200 | Not Active | – |
| Nc1nccc2c1ncn2C/C=C/CO | 40 | – | – | Not Active |
| CC(C)=CCn1cnc2c(N)ncnc21 | 60 | – | – | Not Active |
| C/C(=C/Cn1cnc2c(N)ncnc21)CO | 220 | 200 | Not Active | – |
| Nc1ncnc2c1ncn2[C@@H]1C=C(CO)[C@@H](O)[C@H]1O [NEOPLANOCIN A] | 0.08 | 0.05 | Not Active | – |
| Nc1ncnc2c1ncn2CC#CCO | > 320 | – | – | Not Active |
